For 26 compounds, Kb results are on record in US8809342B2, “Glucagon receptor modulators” (Pfizer Inc., priority 2010, dated 2014).

T1 sequence (P47871 26-477): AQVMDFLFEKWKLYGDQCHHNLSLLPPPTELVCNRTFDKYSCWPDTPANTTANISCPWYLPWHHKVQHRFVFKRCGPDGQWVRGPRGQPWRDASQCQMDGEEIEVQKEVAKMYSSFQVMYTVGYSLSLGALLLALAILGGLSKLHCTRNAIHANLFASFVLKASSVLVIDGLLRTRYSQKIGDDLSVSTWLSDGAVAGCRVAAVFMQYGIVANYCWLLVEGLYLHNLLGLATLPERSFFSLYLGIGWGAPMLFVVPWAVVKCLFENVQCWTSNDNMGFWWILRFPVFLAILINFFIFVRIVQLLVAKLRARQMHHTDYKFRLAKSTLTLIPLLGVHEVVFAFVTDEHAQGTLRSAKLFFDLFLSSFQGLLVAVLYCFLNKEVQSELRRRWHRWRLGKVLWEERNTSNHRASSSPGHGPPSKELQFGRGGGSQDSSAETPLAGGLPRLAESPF

The assay concerns the target T1, human glucagon receptor (Homo sapiens, UniProt P47871).
T1 construct: expressed in transfected cells; host or cells: CHO-K1 cells, stably transfected
In words: Glucagon cAMP assay (Cisbio cAMP detection). Type of assay: cell-based. How it is done: The Cisbio cAMP detection assay is used to determine the ability of punitive glucagon antagonist to block glucagon induced cAMP production. Potential glucagon antagonists are re-suspended and diluted in 100% DMSO. Prior to use in the Glucagon cAMP assay 100×DMSO compound stocks are diluted 20× with DMEM-F12 media (Invitrogen) containing either 0.1% or 4% BSA. 2 uls of 5× compound stocks are spotted into the appropriate wells of low binding white solid bottom 384 well plates (Corning). 2 uls of 5% DMSO or known glucagon antagonist are added to each plate to define the assay window. CHOK1 cells stably transfected with the human glucagon receptor are removed from culture flasks with cell dissociation buffer. Cell pellets are re-suspended, at a concentration of 8.3e^5 cells/ml in DMEM-F12 with or without 4% BSA and 200 uM IBMX. 6 uls of cell suspensions are added to the assay plates. Plates are incubated for 20 min at room temperature prior to the addition of a 100 pM challenge dose of glucagon. On a separate plate glucagon dose response curves are run to determine the EC50 of glucagon. After a 30 min room temperature incubation the reaction is terminated by the addition of lysis buffer containing the cAMP detection reagents. Plates are incubated for an additional 60 min at room temperature prior to being read on the Perkin Elmer fluorescent plate reader. Raw is converted to nM of cAMP produced based on a cAMP standard curve. Converted data is then analyzed using the Pfizer data analysis program. IC50 values are determined from the generated sigmoidal dose response curves. Kb values are the calculated using a modified Cheng-Prusoff equation.
As for `CCC(Nc1cnc(-c2ccc(C(F)(F)F)cc2)c(C)c1)c1ccc(C(=O)NCCC(=O)O)cn1` (racemic) [Example 2.11, (+/−)-3-(6-(1-(5-methyl-6-(4-(trifluoromethyl)phenyl)pyridin-3-ylamino)propyl)nicotinamido)propanoic acid], the Kb was 1800 nM.
Take `CC(C)CC(Nc1ccc(-c2ccc(C(F)(F)F)cc2)cc1)c1ccc(C(=O)NCc2nnn[nH]2)cn1` (racemic) [Example 2.12, (+/−)-N-((1H-tetrazol-5-yl)methyl)-6-(3-methyl-1-(4′-(trifluoromethyl)biphenyl-4-ylamino)butyl)nicotinamide]: the Kb worked out at 730 nM.
With `CC(C)CC(Nc1ccc(-c2ccc(C(F)(F)F)cc2)cc1)c1ccc(C(=O)Nc2nn[nH]n2)cn1` (racemic) [Example 2.13, (+/−)-6-(3-methyl-1-(4′-(trifluoromethyl)biphenyl-4-ylamino)butyl)-N-(2H-tetrazol-5-yl)nicotinamide] the figure was 1900 nM; with `CCCC(Nc1ccc(-c2ccc(C(F)(F)F)cc2)nn1)c1ccc(C(=O)NCCC(=O)O)cc1` (racemic) [Example 2.14, (+/−)-3-(4-(1-(6-(4-(trifluoromethyl)phenyl)pyridazin-3-ylamino)butyl)benzamido)propanoic acid], 290 nM.
Next, `CCCC(Nc1cnc(-c2ccc(C(F)(F)F)cc2)nc1)c1ccc(C(=O)NCCC(=O)O)cc1` (racemic) [Example 2.15, (+/−)-3-(4-(1-(2-(4-(trifluoromethyl)phenyl)pyrimidin-5-ylamino)butyl)benzamido)propanoic acid]: 120 nM; `CC(C)CC(Oc1ccc(-c2ccc(C(F)(F)F)cc2)cc1)c1ccc(C(=O)NCCC(=O)O)cn1` (racemic) [Example 3.1, (+/−)-3-(6-(3-methyl-1-(4′-(trifluoromethyl)biphenyl-4-Yloxy)butyl)nicotinamido)propanoic acid]: 1500 nM.
`CC(C)CC(Oc1ccc(C(=O)NCCC(=O)O)cn1)c1ccc(-c2ccc(C(F)(F)F)cc2)cc1` (racemic) [Example 3.2, (+/−)-3-(6-(3-methyl-1-(4′-(trifluoromethyl)biphenyl-4-yl)butoxy)nicotinamido)propanoic acid]: the Kb was found to be 1900 nM.
With `CC(Oc1ccc(-c2ccc(C(F)(F)F)cc2)cc1)c1ccc(C(=O)NCCC(=O)O)cn1` (racemic) [Example 3.3, (+/−)-3-(6-(1-(4′-(trifluoromethyl)biphenyl-4-yloxy)ethyl)nicotinamido) propanoic acid] the figure was 6000 nM; with `O=C(O)CCNC(=O)c1ccc(NC(c2cnc(-c3ccc(C(F)(F)F)cc3)nc2)C2CCCCC2)nc1` (racemic) [Example 4.2, (+/−)-N-({6-[(cyclohexyl{2-[4-(trifluoromethyl)phenyl]pyrimidin-5-yl}methyl)amino]pyridin-3-yl}carbonyl)-beta-alanine], 31 nM.
Next, `CCCC(Nc1cnc(-c2ccc(C(F)(F)F)cc2)cn1)c1ccc(C(=O)NCCC(=O)O)cc1` (racemic) [Example 4.3, (±)-3-(4-(1-((5-(4-(trifluoromethyl)phenyl)pyrazin-2-yl)amino)butyl)benzamido)propanoic acid]: 99 nM; `O=C(O)CCNC(=O)c1ccc(NC(c2ccc(-c3ccc(C(F)(F)F)cc3)cc2)C2CCOCC2)nc1` (racemic) [Example 4.7, (±)-3-(6-(((tetrahydro-2H-pyran-4-yl)(4′-(trifluoromethyl)-[1,1′-biphenyl]-4-yl)methyl)amino)nicotinamido)propanoic acid]: 220 nM; `CCCC(Nc1ccc(C(=O)NCCC(=O)O)cn1)c1ccc(-c2ccc(C(F)(F)F)cc2)c(C#N)c1` (racemic) [Example 4.8, (±)-3-(6-((1-(2-cyano-4′-(trifluoromethyl)-[1,1′-biphenyl]-4-yl)butyl)amino)nicotinamido)propanoic acid]: 200 nM.
With `O=C(O)CCNC(=O)c1ccc(NC(CCC(F)(F)F)c2ccc(-c3ccc(C(F)(F)F)cc3)cc2)nc1` (racemic) [Example 4.13, (+/−)-3-(6-(4,4,4-trifluoro-1-(4′-(trifluoromethyl)biphenyl-4-yl)butylamino)nicotinamido)propanoic acid] the figure was 700 nM; with `CC(C)CC(Nc1ccc(C(=O)NCCC(=O)O)cn1)c1ccc(-c2ccc(C(F)(F)F)cn2)cc1` (racemic) [Example 4.22, (+/−)-3-(6-(3-methyl-1-(4-(5-(trifluoromethyl)pyridin-2-yl)phenyl)butylamino)nicotinamido)propanoic acid], 53 nM; with `CC(C)CC(Nc1ccc(C(=O)N(C)CCC(=O)O)cn1)c1ccc(-c2ccc(C(F)(F)F)cc2)cc1` (single isomer, unassigned) [Example 4.6, 3-(N-methyl-6-((3-methyl-1-(4′-(trifluoromethyl)-[1,1′-biphenyl]-4-yl)butyl)amino)nicotinamido)propanoic acid (single enantiomer)], 53 nM.
On to `CC(C)C(Nc1ccc(C(=O)NCCC(=O)O)cn1)c1ccc(-c2ccc(C(F)(F)F)cc2)cc1` (single isomer, unassigned; (+)) [Example 1.14, (+)-3-(6-(2-methyl-1-(4′-(trifluoromethyl)biphenyl-4-yl)propylamino)nicotinamido)propanoic acid], for which the Kb was 990 nM.
Compound `CC(C)C(Nc1ccc(C(=O)NCCC(=O)O)cn1)c1ccc(-c2ccc(C(F)(F)F)cc2)cc1` (single isomer, unassigned; (-)) [Example 1.15, (−)-3-(6-(2-methyl-1-(4′-(trifluoromethyl)biphenyl-4-yl)propylamino)nicotinamido) propanoic acid] gave a Kb of 78 nM.
In the case of `CC(C)CC(Nc1ncc(C(=O)NCCC(=O)O)cn1)c1ccc(-c2ccc(C(F)(F)F)cc2)cc1` (single isomer, unassigned; isomer 1) [Example 1.5, 3-(2-(3-methyl-1-(4′-(trifluoromethyl)biphenyl-4-yl)butylamino)pyrimidine-5-carboxamido)propanoic acid, Isomer 1], the Kb was 2900 nM.
Regarding `CCCC(Nc1ccc(C(=O)NCCC(=O)O)cn1)c1ccc(-c2ccc(C(F)(F)F)cc2)cc1` (single isomer, unassigned; isomer 1) [Example 1.8, 3-(6-(1-(4′-(trifluoromethyl)biphenyl-4-yl)butylamino)nicotinamido) propanoic acid, Isomer 1], the Kb was 1000 nM.
With `CCC(Nc1ccc(C(=O)NCCC(=O)O)cn1)c1ccc(-c2ccc(C(F)(F)F)cc2)cc1` (single isomer, unassigned; isomer 1) [Example 1.12, 3-(6-(1-(4′-(trifluoromethyl)biphenyl-4-yl)propylamino)nicotinamido) propanoic acid, Isomer 1] the figure was 560 nM; with `CC(C)CC(Nc1cnc(C(=O)NCCC(=O)O)cn1)c1ccc(-c2ccc(C(F)(F)F)cc2)cc1` (single isomer, unassigned; isomer 1) [Example 1.17, 3-(5-(3-methyl-1-(4′-(trifluoromethyl)biphenyl-4-yl)butylamino)pyrazine-2-carboxamido)propanoic acid, Isomer 1], 1100 nM.
On to `Cc1cc(NC(CC(C)C)c2ccc(C(=O)NCCC(=O)O)cn2)cc(C)c1-c1ccc(C(F)(F)F)cc1` (single isomer, unassigned; isomer 1) [Example 2.2, 3-(6-(1-(2,6-dimethyl-4′-(trifluoromethyl)biphenyl-4-ylamino)-3-methylbutyl)nicotinamido)propanoic acid, Isomer 1], for which the Kb was found to be 54 nM.
`CC(C)CC(Nc1ccc(-c2ccc(C(F)(F)F)cc2)cc1)c1ccc(C(=O)NCCC(=O)O)cn1` (single isomer, unassigned; isomer 1) [Example 2.5, 3-(6-(3-methyl-1-(4′-(trifluoromethyl)biphenyl-4-ylamino)butyl)nicotinamido)propanoic acid, Isomer 1] came in with a Kb of 760 nM.
With `CCCC(Nc1cnc(-c2ccc(C(F)(F)F)cc2)nc1)c1ccc(C(=O)NCCC(=O)O)cc1` (single isomer, unassigned; isomer 1) [Example 2.16, 3-(4-(1-(2-(4-(trifluoromethyl)phenyl)pyrimidin-5-ylamino)butyl)benzamido)propanoic acid, Isomer 1] the figure was 120 nM.
With `Cc1cc(NC(CC(C)C)c2ccc(C(=O)NCCC(=O)O)cn2)cnc1-c1ccc(Cl)cc1` (single isomer, unassigned; isomer 1) [Example 4.16, 3-(6-(1-(6-(4-chlorophenyl)-5-methylpyridin-3-ylamino)-3-methylbutyl)nicotinamido)propanoic acid, Isomer 1] the figure was 180 nM; with `CC(C)C[C@@H](Nc1ccc(C(=O)NCCC(=O)O)cn1)c1ccc(-c2ccc(C(F)(F)F)cc2)nc1` (single isomer, unassigned; isomer 1) [Example 4.20, 3-(6-(3-methyl-1-(6-(4-(trifluoromethyl)phenyl)pyridin-3-yl)butylamino)nicotinamido)propanoic acid, Isomer 1], 61 nM.
